Test results as given in PMC12207533, “Structure-guided design of a methyltransferase-like 3 (METTL3) proteolysis targeting chimera (PROTAC) incorporating an indole–nicotinamide chemotype” (RSC Medicinal Chemistry, 2025).

Target: T1, METTL3 (Homo sapiens, UniProt Q86U44)
T1 construct: endogenous in cells; host or cells: MOLM-13
Test: Immunoblotting of METTL3 protein levels in MOLM-13 cells
Type: cell-based
Settings: MOLM-13, 0.1-10 μM, 16 h
Experimental: MOLM-13 were seeded in 12-well cell culture plates at a density of 1 × 10^6 cells per mL and treated with DMSO (final: 0.1%) or different concentrations of PROTAC degraders in DMSO at the indicated times. Treatments were conducted in biological triplicate with varying passages of MOLM-13 cells. The cells were harvested by centrifugation at 500g for 5 min and washed with PBS. The cells were lysed with RIPA lysis buffer with the addition of protease inhibitor (1× cOMPLETE), and insoluble cellular parts were separated by centrifugation (12 000g for 10 min), subsequently, the supernatant was boiled with 1× Laemmli sample buffer (Carl Roth) for 5 min at 95 °C. Proteins were separated by SDS–PAGE on 4–20% Criterion™ TGX™ Precast Protein Gels (Bio-Rad) and transferred to Amersham™ Protean® 0.45 μm nitrocellulose membrane (Cytiva) using semi-dry transfer (25 V, 1 A, Towbin buffer). The membrane was blocked with 5% milk (Carl Roth) in TBST buffer and incubated with the following primary antibodies: Anti-METTL3 (1 : 1000, Abcam, ab195352), anti-METTL14 (1 : 1000, Abcam, ab220030), anti-Bcl2 (1 : 1000, Cell Signaling Technology [CST], EPR16891), anti-Mcl-1 (1 : 1000, CST, 5453 T), anti-Bcl-XL (1 : 1000, CST, 2764 T), anti-vinculin (1 : 1000, CST, 13901) or anti-GAPDH (1 : 5000, CST, D17C4) overnight at 4 °C. Subsequently, the membrane was incubated for 1 h at RT with secondary antibodies: anti-rabbit (1 : 2000, VWR, NA934) or anti-mouse (1 : 2000, VWR, 102646-160). The protein bands were detected via chemiluminescence using Pierce™ ECL western blotting substrate and a Fusion FX imaging system (Vilber). The ImageLab software (Bio-Rad) was used for band quantification.

T1 sequence (Q86U44 whole entry): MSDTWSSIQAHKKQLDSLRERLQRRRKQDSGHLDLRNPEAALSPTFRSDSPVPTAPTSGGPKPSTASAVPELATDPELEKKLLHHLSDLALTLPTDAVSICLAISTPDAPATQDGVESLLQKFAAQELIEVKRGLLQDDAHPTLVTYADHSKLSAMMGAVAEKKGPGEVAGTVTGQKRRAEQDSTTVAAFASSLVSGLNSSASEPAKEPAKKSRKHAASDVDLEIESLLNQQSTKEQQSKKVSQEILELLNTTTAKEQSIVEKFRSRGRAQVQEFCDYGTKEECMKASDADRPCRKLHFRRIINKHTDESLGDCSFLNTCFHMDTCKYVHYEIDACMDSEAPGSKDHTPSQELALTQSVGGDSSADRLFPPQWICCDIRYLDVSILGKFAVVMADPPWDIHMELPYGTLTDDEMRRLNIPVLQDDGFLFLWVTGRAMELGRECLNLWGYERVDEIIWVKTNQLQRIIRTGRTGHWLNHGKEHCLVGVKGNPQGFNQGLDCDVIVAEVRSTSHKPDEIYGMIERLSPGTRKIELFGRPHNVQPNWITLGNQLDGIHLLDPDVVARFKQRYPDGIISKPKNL

METTL3 degradation (Western blot screening): do not func?on as METTL3 degraders
SMILES: CC1(C)CCN(Cc2ccc3nc(Cn4cc(-c5cc(Br)cc6[nH]ncc56)nn4)cn3c2)CC1 [STM3006, reference compound]
